In patent publication US20240409556A1, “BENZOPIPERAZINE AND RELATED ANALOGS FOR INHIBITING YAP/TAZ-TEAD” (Springworks Therapeutics, Inc., priority 2023, published 2024):

tested on: YAP/TAZ-TEAD transcription; assay: Reporter gene assay for measuring the inhibition of YAP/TAZ-TEAD transcription (TEAD-responsive element luciferase reporter in Hek293T cells); format: cell-based; settings: 24 hours incubation
Summary of the method: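 HEK293T cells transiently transfected with a TEAD-responsive luciferase reporter were exposed to compounds for 24 h at 37° C/5% CO2, then luminescence was read. Percent inhibition normalised to vehicle (0%) and positive-control inhibitor (100%); IC50 derived.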

| IC50 [nM] | Compound |
| --- | --- |
| 1000 to 10000 | CC(=O)N1CCN2c3nccnc3N(c3ccc(C(F)(F)F)cc3)CC2C1 (single isomer, unassigned) [40-En2, (R)- or (S)-1-(5-(4-(trifluoromethyl)phenyl)-5,6,6a,7,9,10-hexahydro-8H-dipyrazino[1,2-a:2′,3′-e]pyrazin-8-yl)ethan-1-one] |
| < 1000 | O=C(O)C1(F)CCN2c3ccccc3N(c3ccc(C(F)(F)F)cc3)CC2C1 [123-D4, (6aS,8S)- or (6aR,8S)- or (6aR,8R)- or (6aS,8R)-8-fluoro-5-(4-(trifluoromethyl)phenyl)-6,6a,7,8,9,10-hexahydro-5H-pyrido[1,2-a]quinoxaline-8-carboxylic acid] |
| < 1000 | Cc1ccc2c(n1)N1CCC(C(=O)O)CC1CN2c1ccc(C(F)(F)F)cc1 [101-D3, (6aS,8S)— or (6aR,8S)— or (6aR,8R)— or (6aS,8R)-2-methyl-5-(4-(trifluoromethyl)phenyl)-6,6a,7,8,9,10-hexahydro-5H-dipyrido[1,2-a:3′,2′-e]pyrazine-8-carboxylic acid] |
| 1000 to 10000 | FC(F)(F)c1ccc(N2CC3CC(c4nnn[nH]4)CCN3c3ccccc32)cc1 (single isomer, unassigned) [121-D3, 8-(1H-tetrazol-5-yl)-5-(4-(trifluoromethyl)phenyl)-6,6a,7,8,9,10-hexahydro-5H-pyrido[1,2-a]quinoxaline] |
| < 1000 | CNS(=O)(=O)N1CCN2c3ncccc3N(c3ccc(C(F)(F)F)cc3)CC2C1 (single isomer, unassigned) [45-En1, (R)- or (S)-N-methyl-5-(4-(trifluoromethyl)phenyl)-5,6,6a,7,9,10-hexahydro-8H-pyrazino[1,2-a]pyrido[3,2-e]pyrazine-8-sulfonamide] |
| > 10000 | COc1ccc2c(n1)OC(CNC(C)=O)CN2c1ccc(C(F)(F)F)cc1 (single isomer, unassigned) [73-En1, (R)- or (S)-N-((6-methoxy-1-(4-(trifluoromethyl)phenyl)-2,3-dihydro-1H-pyrido[2,3-b][1,4]oxazin-3-yl)methyl)acetamide] |

same assay, conditions: Homo sapiens, HEK-293T, 24 h, 24 hours incubation

| IC50 [nM] | Compound |
| --- | --- |
| < 1000 | C=CC(=O)N1CCN2c3nccnc3N(c3ccc(C(F)(F)F)cc3)CC2C1 (stereo not drawn) [compound 41, 1-(5-(4-(trifluoromethyl)phenyl)-5,6,6a,7,9,10-hexahydro-8H-dipyrazino[1,2-a:2′,3′-e]pyrazin-8-yl)prop-2-en-1-one] |
| < 1000 | CC(=O)NCC1CN(c2ccc(C(F)(F)F)cc2)c2ccc(Br)nc2O1 (single isomer, unassigned) [compound 122, (R)- or (S)—N-((6-bromo-1-(4-(trifluoromethyl)phenyl)-2,3-dihydro-1H-pyrido[2,3-b][1,4]oxazin-3-yl)methyl)acetamide] |
| < 1000 | CC(=O)NCCN1CCN(c2ccc(C(F)(F)F)cc2)c2ccccc21 [compound 57, N-(2-(4-(4-(trifluoromethyl)phenyl)-3,4-dihydroquinoxalin-1(2H)-yl)ethyl)acetamide] |
| < 1000 | C=CC(=O)N1CCN2CC(=O)N(c3ccc(C(F)(F)F)cc3)CC2C1 (stereo not drawn) [compound 33, 8-acryloyl-2-(4-(trifluoromethyl)phenyl)-hexahydro-2H-pyrazino[1,2-a]pyrazin-3(4H)-one] |
| > 10000 | CC(=O)NCC1CN(c2ccc(C(F)(F)F)cc2)c2ccccc2N1CCC(=O)O (stereo not drawn) [compound 8, 3-(2-(acetamidomethyl)-4-(4-(trifluoromethyl)phenyl)-3,4-dihydroquinoxalin-1(2H)-yl)propanoic acid] |
| 1000 to 10000 | O=C(O)CN1CCN2c3ccccc3N(c3ccc(C(F)(F)F)cc3)CC2C1 (stereo not drawn) [compound 31, 2-(6-(4-(trifluoromethyl)phenyl)-1,2,4,4a,5,6-hexahydro-3H-pyrazino[1,2-a]quinoxalin-3-yl)acetic acid] |
| 1000 to 10000 | O=C(O)C1CCN2c3ccc(Cl)cc3N(c3ccc(C(F)(F)F)cc3)CC2C1 (stereo not drawn) [compound 104, (cis)- or (trans)-3-chloro-5-(4-(trifluoromethyl)phenyl)-6,6a,7,8,9,10-hexahydro-5H-pyrido[1,2-a]quinoxaline-8-carboxylic acid] |
| < 1000 | CC(=O)NC[C@@H]1CN(c2ccc(C(F)(F)F)cc2)c2cccnc2N1 [39-En2, (R)-N-((1-(4-(trifluoromethyl)phenyl)-1,2,3,4-tetrahydropyrido[2,3-b]pyrazin-3-yl)methyl)acetamide] |
| 1000 to 10000 | O=C(O)CC(=O)N[C@@H]1C[C@@H]2CN(c3ccc(C(F)(F)F)cc3)c3cccnc3N2C1 [compound 94, 3-oxo-3-(((6aR,8R)-5-(4-(trifluoromethyl)phenyl)-5,6,6a,7,8,9-hexahydropyrido[3,2-e]pyrrolo[1,2-a]pyrazin-8-yl)amino)propanoic acid] |
| < 1000 | O=C(C1CC1)N1CCN2c3ncccc3N(c3ccc(C(F)(F)F)cc3)CC2C1 (stereo not drawn) [compound 46, Cyclopropyl(5-(4-(trifluoromethyl)phenyl)-5,6,6a,7,9,10-hexahydro-8H-pyrazino[1,2-a]pyrido[3,2-e]pyrazin-8-yl)methanone] |
| 1000 to 10000 | O=C1CN2c3ccccc3N(c3ccc(C(F)(F)F)cc3)CC2CN1 (stereo not drawn) [compound 10, 6-(4-(trifluoromethyl)phenyl)-4,4a,5,6-tetrahydro-1H-pyrazino[1,2-a]quinoxalin-2(3H)-one] |
| < 1000 | O=C(O)C1CCN2c3cc(Cl)ccc3N(c3ccc(C(F)(F)F)cc3)CC2C1 (stereo not drawn) [compound 106, (cis)- or (trans)-2-chloro-5-(4-(trifluoromethyl)phenyl)-6,6a,7,8,9,10-hexahydro-5H-pyrido[1,2-a]quinoxaline-8-carboxylic acid] |
| < 1000 | O=C(O)C1CCN2c3c(Cl)cccc3N(c3ccc(C(F)(F)F)cc3)CC2C1 (stereo not drawn) [compound 105, (cis)- or (trans)-1-chloro-5-(4-(trifluoromethyl)phenyl)-6,6a,7,8,9,10-hexahydro-5H-pyrido[1,2-a]quinoxaline-8-carboxylic acid] |
| < 1000 | O=C(O)C1CCN2c3ncccc3N(c3ccc(C(F)(F)F)cc3)CC2C1 (single isomer, unassigned) [96A, (cis)- or (trans)-5-(4-(trifluoromethyl)phenyl)-6,6a,7,8,9,10-hexahydro-5H-dipyrido[1,2-a:3′,2′-e]pyrazine-8-carboxylic acid] |
| < 1000 | C=CC(=O)NCC1CN(c2ccc(C(F)(F)F)cc2)c2ccccc2N1CCC(=O)NC (stereo not drawn) [compound 9, N-((1-(3-(methylamino)-3-oxopropyl)-4-(4-(trifluoromethyl)phenyl)-1,2,3,4-tetrahydroquinoxalin-2-yl)methyl)acrylamide] |
| > 10000 | CC(=O)NCC1CN(c2ccc(C(F)(F)F)cc2)c2cccnc2S1(=O)=O (stereo not drawn) [compound 58, N-((4,4-dioxido-1-(4-(trifluoromethyl)phenyl)-2,3-dihydro-1H-pyrido[2,3-b][1,4]thiazin-3-yl)methyl)acetamide] |
| 1000 to 10000 | CC(=O)NCC1CN(c2ccc(C(F)(F)F)cn2)c2cccnc2O1 (stereo not drawn) [compound 78, N-((1-(5-(trifluoromethyl)pyridin-2-yl)-2,3-dihydro-1H-pyrido[2,3-b][1,4]oxazin-3-yl)methyl)acetamide] |
| < 1000 | CCc1ccc2c(n1)OC(CNC(C)=O)CN2c1ccc(C(F)(F)F)cc1 (stereo not drawn) [compound 82, N-((6-ethyl-1-(4-(trifluoromethyl)phenyl)-2,3-dihydro-1H-pyrido[2,3-b][1,4]oxazin-3-yl)methyl)acetamide] |
| < 1000 | C=CC(=O)NCC1CN(c2ccc(C(F)(F)F)cc2)c2ccccc2N1CCO (stereo not drawn) [compound 1, N-((1-(2-hydroxyethyl)-4-(4-(trifluoromethyl)phenyl)-1,2,3,4-tetrahydroquinoxalin-2-yl)methyl)acrylamide] |
| < 1000 | C=CC(=O)NCC1CN(c2ccc(C(F)(F)F)cc2)c2cccnc2N1C (stereo not drawn) [compound 27, N-((4-methyl-1-(4-(trifluoromethyl)phenyl)-1,2,3,4-tetrahydropyrido[2,3-b]pyrazin-3-yl)methyl)acrylamide] |
| < 1000 | NCC(=O)N[C@@H]1C[C@@H]2CN(c3ccc(C(F)(F)F)cc3)c3cccnc3N2C1 [compound 97, 2-amino-N-((6aR,8R)-5-(4-(trifluoromethyl)phenyl)-5,6,6a,7,8,9-hexahydropyrido[3,2-e]pyrrolo[1,2-a]pyrazin-8-yl)acetamide] |
| > 10000 | CC(=O)N1CC2CN(c3ccc(C(F)(F)F)cc3)c3cccnc3N2C1=O (stereo not drawn) [compound 59, 8-acetyl-5-(4-(trifluoromethyl)phenyl)-6,6a,7,8-tetrahydroimidazo[1,5-a]pyrido[3,2-e]pyrazin-9(5H)-one] |
| 1000 to 10000 | CC(=O)NCC1CN(c2ccc(C(F)(F)F)cc2)c2ccccc2N1C (stereo not drawn) [compound 19, N-((1-methyl-4-(4-(trifluoromethyl)phenyl)-1,2,3,4-tetrahydroquinoxalin-2-yl)methyl)acetamide] |
| < 1000 | O=C(c1cn[nH]c1)N1CCN(c2ccc(C(F)(F)F)cc2)c2ccccc21 [compound 74, (1H-pyrazol-4-yl)(4-(4-(trifluoromethyl)phenyl)-3,4-dihydroquinoxalin-1(2H)-yl)methanone] |
| 1000 to 10000 | CC(=O)NCC1CN(c2ccc(C(F)(F)F)cc2)c2ccc(C#N)nc2O1 (single isomer, unassigned) [99-En1 or 99-En2, (R)- or (S)—N-((6-cyano-1-(4-(trifluoromethyl)phenyl)-2,3-dihydro-1H-pyrido[2,3-b][1,4]oxazin-3-yl)methyl)acetamide] |
| < 1000 | Cc1ncc(CN2CCN(c3ccc(C(F)(F)F)cc3)c3ccccc32)[nH]1 [compound 61, 1-((2-methyl-1H-imidazol-5-yl)methyl)-4-(4-(trifluoromethyl)phenyl)-1,2,3,4-tetrahydroquinoxaline] |

| Compound | IC50 [nM] |
| --- | --- |
| C=CC(=O)N1CCN2C(C1)CN(c1ccc(C(F)(F)F)cc1)C1CCC12 (single isomer, unassigned) [42(Dia1), 1-(3-(4-(trifluoromethyl)phenyl)decahydro-6H-cyclobuta[e]pyrazino[1,2-a]pyrazin-6-yl)prop-2-en-1-one] | < 1000 |
